# Test results from patent US10077209B2, “Glazing unit comprising a hydrophilic layer having an improved scratch resistance” (SAINT-GOBAIN GLASS FRANCE, priority 2013, dated 2018).
# Experiment: Solubility of bis-urea monomers in diacetone alcohol (DAA)
# Format: physicochemical
# Settings: solvent diacetone alcohol
# Method: Three bis-urea monomers were synthesized from toluene-2,4-diisocyanate (TDI) on the one hand, 6-amino-1-hexanol, 2-amino-1-butanol and 2-aminopropanol on the other hand, all purchased from Aldrich. The TDI was stored at 4° C. with the aim of preventing side reactions. The dichloromethane was obtained from VWR and distilled and dried before use. The table below indicates the No. assigned to each bis-urea in the rest of the example, the starting products for its synthesis, a schematic representation of its formula and its solubility in DAA.
row,Solubility in DAA,Compound
1,2.4 % by wt.,CCC(CO)NC(=O)Nc1ccc(C)c(NC(=O)NC(CC)CO)c1 (stereo not drawn) [Bis-urea5]
2,8 % by wt.,Cc1ccc(NC(=O)NCC(C)O)cc1NC(=O)NCC(C)O (stereo not drawn) [Bis-urea1]
3,7.5 % by wt.,Cc1ccc(NC(=O)NCCCCCCO)cc1NC(=O)NCCCCCCO [Bis-urea4]
